Results on 2 compounds are retold here after patent US20160244405A1, “COMPOSITIONS AND METHODS FOR THE TREATMENT OF HYPERGLYCEMIA AND METABOLIC SYNDROME” (priority 2015, published 2016).

A short description of the series: Water solubility by adding distilled water in portions until a clear solution. The following applies: thermodynamic from solid. The series is classed as physicochemical. The procedure:
The Solubility of the Compound of amino(3,3-dimethylguanidino)methaniminium (S)-2-((5Z,8Z,11Z,14Z,17Z)-icosa-5,8,11,14,17-pentaenamido)-4-methylpentanoate, Example-1 in Water was Compared with that of Eicosapentaenoic Acid (EPA) Measurement of the water solubility of the test compound was accomplished by using methods well known to those skilled in the art. Specifically, to a weighed amount of the test compounds of Example-1 and EPA were taken in separate vials; distilled water was added in small portions until a clear solution was obtained. The water solubility is calculated by dividing the weight of salt, in mg, by the volume of the solution, in mL. The water solubility of the compounds of example-1 compared to EPA alone were as follows: […]

Molecules are shown by their SMILES. In brackets after ≈: the same amount, converted by molar mass. Read-outs that look alike come from different tables or passages of the source.

As a reminder, the solubility is the dissolved amount per volume that the medium holds. Consider `CC/C=C\C/C=C\C/C=C\C/C=C\C/C=C\CCCC(=O)O` [EPA, eicosapentaenoic acid], for which the solubility (distilled water, weight of salt in mg divided by volume of solution in mL, read-out: water solubility) was below 0.3 mg/mL.

`CC/C=C\C/C=C\C/C=C\C/C=C\C/C=C\CCCC(=O)N[C@@H](CC(C)C)C(=O)O` [Example-1, amino(3,3-dimethylguanidino)methaniminium (S)-2-((5Z,8Z,11Z,14Z,17Z)-icosa-5,8,11,14,17-pentaenamido)-4-methylpentanoate]: the solubility (water) turned out to be 118 mg/mL (≈ 284 mM).
